# Laboratory results: PubChem BioAssay AID2060340 (Molecular Pharmacology Branch, DTP, NCI, 2025)
# Test system: 349418-098-R-PDC spheroids, viability, % test/control
# Assay: Anticancer human tumor 349418-098-R-PDC patient-derived lung adenocarcinoma cell line growth inhibition [IpAb]
# Conditions: spheroids with HUVEC and MSC; for IC50: curve of first compound; for viability, T/C: stronger effect = lower value
# How it was run: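 Multi-cell spheroids of 60% tumour cells, 25% HUVEC and 15% MSC in ultra-low-attachment U-bottom wells, treated with agents combined with ipatasertib or abemaciclib. Half-log ranges top out near clinical Cmax, or 10 microM when Cmax is unknown.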
# 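Also: spheroids exposed to compounds for 7 days.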
compound,measurement,setting,value
C=CCn1c(=O)c2cnc(Nc3ccc(N4CCN(C)CC4)cc3)nc2n1-c1cccc(C(C)(C)O)n1 + CCN1CCN(Cc2ccc(Nc3ncc(F)c(-c4cc(F)c5nc(C)n(C(C)C)c5c4)n3)nc2)CC1,IC50,second compound 0.01 µM,164 nM
same,IC50,second compound 0.0316 µM,101 nM
same,IC50,second compound 0.1 µM,< 31.6 nM
same,IC50,second compound 0.316 µM,< 31.6 nM
same,IC50,second compound 1 µM,< 31.6 nM
same,"viability, T/C","second compound 0.01 µM, first compound 0.0316 µM",78.5%
same,"viability, T/C","second compound 0.01 µM, first compound 0.1 µM",76.4%
same,"viability, T/C","second compound 0.01 µM, first compound 0.316 µM",15.1%
same,"viability, T/C","second compound 0.01 µM, first compound 1 µM",5.22%
same,"viability, T/C","second compound 0.01 µM, first compound 3.16 µM",4.65%
same,"viability, T/C","second compound 0.01 µM, first compound 10 µM",5.36%
same,"viability, T/C","second compound 0.0316 µM, first compound 0.0316 µM",65.1%
same,"viability, T/C","second compound 0.0316 µM, first compound 0.1 µM",50.2%
same,"viability, T/C","second compound 0.0316 µM, first compound 0.316 µM",13.4%
same,"viability, T/C","second compound 0.0316 µM, first compound 1 µM",6.17%
same,"viability, T/C","second compound 0.0316 µM, first compound 3.16 µM",4.95%
same,"viability, T/C","second compound 0.0316 µM, first compound 10 µM",4.75%
same,"viability, T/C","second compound 0.1 µM, first compound 0.0316 µM",38.4%
same,"viability, T/C","second compound 0.1 µM, first compound 0.1 µM",30%
same,"viability, T/C","second compound 0.1 µM, first compound 0.316 µM",13.3%
same,"viability, T/C","second compound 0.1 µM, first compound 1 µM",7%
same,"viability, T/C","second compound 0.1 µM, first compound 3.16 µM",6.21%
same,"viability, T/C","second compound 0.1 µM, first compound 10 µM",5.25%
same,"viability, T/C","second compound 0.316 µM, first compound 0.0316 µM",23.6%
same,"viability, T/C","second compound 0.316 µM, first compound 0.1 µM",20.2%
same,"viability, T/C","second compound 0.316 µM, first compound 0.316 µM",14.4%
same,"viability, T/C","second compound 0.316 µM, first compound 1 µM",10%
same,"viability, T/C","second compound 0.316 µM, first compound 3.16 µM",7.67%
same,"viability, T/C","second compound 0.316 µM, first compound 10 µM",6.46%
same,"viability, T/C","second compound 1 µM, first compound 0.0316 µM",17.9%
same,"viability, T/C","second compound 1 µM, first compound 0.1 µM",15.5%
same,"viability, T/C","second compound 1 µM, first compound 0.316 µM",11.4%
same,"viability, T/C","second compound 1 µM, first compound 1 µM",9.92%
same,"viability, T/C","second compound 1 µM, first compound 3.16 µM",6.96%
same,"viability, T/C","second compound 1 µM, first compound 10 µM",5.12%
Cn1cnc2c(F)c(Nc3ccc(Br)cc3Cl)c(C(=O)NOCCO)cc21 + CCN1CCN(Cc2ccc(Nc3ncc(F)c(-c4cc(F)c5nc(C)n(C(C)C)c5c4)n3)nc2)CC1,IC50,second compound 0.01 µM,< 9.49 nM
same,IC50,second compound 0.0316 µM,< 9.49 nM
same,IC50,second compound 0.1 µM,< 9.49 nM
same,IC50,second compound 0.316 µM,< 9.49 nM
same,IC50,second compound 1 µM,< 9.49 nM
same,"viability, T/C","second compound 0.01 µM, first compound 0.00949 µM",41.1%
same,"viability, T/C","second compound 0.01 µM, first compound 0.03 µM",33.9%
same,"viability, T/C","second compound 0.01 µM, first compound 0.0949 µM",27.2%
same,"viability, T/C","second compound 0.01 µM, first compound 0.3 µM",28.7%
same,"viability, T/C","second compound 0.01 µM, first compound 0.949 µM",17.3%
same,"viability, T/C","second compound 0.01 µM, first compound 3 µM",8.8%
same,"viability, T/C","second compound 0.0316 µM, first compound 0.00949 µM",26.7%
same,"viability, T/C","second compound 0.0316 µM, first compound 0.03 µM",21.7%
same,"viability, T/C","second compound 0.0316 µM, first compound 0.0949 µM",18.9%
same,"viability, T/C","second compound 0.0316 µM, first compound 0.3 µM",17.9%
same,"viability, T/C","second compound 0.0316 µM, first compound 0.949 µM",12.1%
same,"viability, T/C","second compound 0.0316 µM, first compound 3 µM",7.93%
same,"viability, T/C","second compound 0.1 µM, first compound 0.00949 µM",15.1%
same,"viability, T/C","second compound 0.1 µM, first compound 0.03 µM",14.7%
same,"viability, T/C","second compound 0.1 µM, first compound 0.0949 µM",12%
same,"viability, T/C","second compound 0.1 µM, first compound 0.3 µM",11.2%
same,"viability, T/C","second compound 0.1 µM, first compound 0.949 µM",9.1%
same,"viability, T/C","second compound 0.1 µM, first compound 3 µM",6.69%
same,"viability, T/C","second compound 0.316 µM, first compound 0.00949 µM",12.1%
same,"viability, T/C","second compound 0.316 µM, first compound 0.03 µM",11.2%
same,"viability, T/C","second compound 0.316 µM, first compound 0.0949 µM",10.1%
same,"viability, T/C","second compound 0.316 µM, first compound 0.3 µM",9.23%
same,"viability, T/C","second compound 0.316 µM, first compound 0.949 µM",8.49%
same,"viability, T/C","second compound 0.316 µM, first compound 3 µM",7.04%
same,"viability, T/C","second compound 1 µM, first compound 0.00949 µM",9.97%
same,"viability, T/C","second compound 1 µM, first compound 0.03 µM",10.1%
same,"viability, T/C","second compound 1 µM, first compound 0.0949 µM",10.6%
same,"viability, T/C","second compound 1 µM, first compound 0.3 µM",8.23%
same,"viability, T/C","second compound 1 µM, first compound 0.949 µM",8.1%
same,"viability, T/C","second compound 1 µM, first compound 3 µM",6.68%
